Drawing on patent US20030130298A1, “Cd45 inhibitors” (priority 1999, published 2003), this text covers CC50 and IC50 for four compounds.

Series [1] is described as follows: Cytotoxicity assay (Calcein-AM uptake). Type of series: cell-based. As to conditions: human, PHA-expanded T-cell lymphoblasts derived from PBMC, overnight incubation, Calcein-AM viability.
Protocol: Calcein-AM (Molecular Probes, Eugene, Oreg.) uptake, as a quantitative measure of cell viability, was used to evaluate the toxic effect of compounds on T cells.
The T-cell lymphoblasts were purified by separation over Lymphoprep, plated at 2×10 ^5/well in a round bottom 96-well plate containing RPMI with compound and incubated overnight at 37° C. in an incubator containing 5% CO2. The dilution scheme and culture media were the same as those used in the T-cell proliferation assay. After the incubation period, cells were washed with Dulbecco's phosphate- buffered saline (D-PBS) and incubated with 1 μM Calcein-AM for 30-45 min in D-PBS as described in the technical sheet provided with The LIVE/DEAD Viability/Cytotoxicity Kit from Molecular Probes.
Series [2] deals with Peripheral blood mononuclear cells (T cells). In words: T cell proliferation assay (anti-CD3 OKT3 activated PBMC, [3H]thymidine). In kind it is cell-based. As to conditions: Homo sapiens; PBMC activated with OKT3 30 ng/mL; read-out: T cell prolif. IC50. As for the experimental part: Whole blood was obtained from healthy human blood donors. Peripheral blood mononuclear cells (“PBMC”) were isolated using Lymphoprep density-gradient centrifugation (Nycomed Amersham, Oslo, Norway), washed, counted and resuspended at 2×10^6 cells/mL in RPMI 1640 medium containing glutamine, 0.1 mg/mL gentamycin and 10% heat inactivated human serum. PBMC were transferred to 96-well plates (2×10^5 cells/well) containing compound or vehicle control, with the final concentration of DMSO not to exceed 0.3%, and incubated for 1 hour before addition of the activating anti-CD3 antibody, OKT3 (30 ng/mL). After 24 hours in culture, the cells were pulsed with [^3H]thymidine (1 μCi/well) overnight and harvested the next day onto 96-well Packard GF/C filter plates using a Packard Cell Harvester (Packard Instruments, Meriden, Conn.). The filter plate was dried, the bottom of the plate sealed, 25 μL of Microscint 20 scintillation fluid added to each well, the top of the plate sealed with TopSeal-A, and the plate counted on a Packard TopCount. The data from the TopCount is transferred into Excel 5 (Microsoft, Redmond, Wash.) and formatted for EC50 determination using Prism software (GraphPad Software, San Diego, Calif.).

Series [3] deals with T1, CD45 (Homo sapiens, UniProt P08575).
T1 construct: purchased BIOMOL (Plymouth Meeting, P.A.)
T1 sequence (P08575 599-1306 limits assumed): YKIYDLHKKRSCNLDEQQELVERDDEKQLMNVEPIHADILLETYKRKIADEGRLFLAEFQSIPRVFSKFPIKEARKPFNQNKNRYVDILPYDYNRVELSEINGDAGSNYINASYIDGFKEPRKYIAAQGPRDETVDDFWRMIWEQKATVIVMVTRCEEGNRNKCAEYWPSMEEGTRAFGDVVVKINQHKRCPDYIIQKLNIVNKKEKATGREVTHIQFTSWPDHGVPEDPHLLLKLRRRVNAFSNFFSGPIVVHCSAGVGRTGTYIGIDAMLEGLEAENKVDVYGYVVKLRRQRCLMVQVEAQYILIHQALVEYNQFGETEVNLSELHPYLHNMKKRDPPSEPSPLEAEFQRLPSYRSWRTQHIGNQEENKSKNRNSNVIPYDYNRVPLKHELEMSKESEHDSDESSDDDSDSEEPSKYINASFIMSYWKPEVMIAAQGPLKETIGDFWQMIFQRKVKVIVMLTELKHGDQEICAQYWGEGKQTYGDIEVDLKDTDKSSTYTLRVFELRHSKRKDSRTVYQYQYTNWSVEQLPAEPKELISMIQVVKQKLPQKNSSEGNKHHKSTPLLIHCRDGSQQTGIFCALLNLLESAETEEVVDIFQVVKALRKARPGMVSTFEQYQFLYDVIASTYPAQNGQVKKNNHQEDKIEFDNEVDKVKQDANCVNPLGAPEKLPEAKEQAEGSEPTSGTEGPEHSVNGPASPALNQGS
Kind of series: Phosphatase assay using pNPP as substrate. Type of series: biochemical. As to conditions: pH 7.0. The protocol:
(§1) Potent inhibitors of CD45 have been discovered. Such inhibitors are useful for the treatment of various autoimmune disorders as well as for treatment of OGR. Inhibition of the phosphatase activity of CD45 by compounds of the present invention has been shown by incubating the cytosolic portion of CD45 with the compounds and p-nitrophenyl phosphate (pNPP), a phosphatase substrate. Spectrophotometric monitoring has shown that the liberation of p-nitrophenol from the substrate by CD45 is inhibited in the presence of the compounds disclosed herein. Inhibition of the phosphatase activity of CD45 by compounds of the present invention has also been shown using a p56^lckcarboxy-terminal phosphorylated peptide as a substrate.
CD45 enzyme was obtained from BIOMOL (Plymouth Meeting, P.A.). Phosphatase activity was assayed in a buffer containing final concentrations of 25 mM imidazole at pH 7.0, 50 mM NaCl, 2.5 mM ethylenediaminetetraacetic acid (“EDTA”), 5 mM dithiothreitol (“DTT”) and 10 μg/mL bovine serum albumin (“BSA”) using pNPP as a substrate. […] Activity was measured by following the increase in absorbance at 405 nm using a SpectraMax Plus spectrophotometric plate reader (Molecular Devices, Sunnyvale, Calif.).

The target of series [4] is T1, CD45. In words: Phosphatase assay using lck 10-mer as substrate. Particulars: lck carboxy-terminal peptide TEGQpYQPQP substrate, read-out: Ick IC50. Type of series: biochemical. The protocol:
as §1
Phosphatase activity was assayed in 96 well plates in a buffer containing final concentrations of 25 mM HEPES at pH 7.2, 5 mM DTT and 10 μg/mL BSA, using the lck carboxy-terminal peptide TEGQpYQPQP as the substrate (Cho, H., Krishnaraj, R., Itoh, M., Kitas, E., Bannwarth, W., Saito, H., Walsh, C. T. 1993. Substrate specificities of catalytic fragments of protein tyrosine phosphatases (HPTPb, LAR, and CD45) toward the phosphotyrosylpeptide substrates and thiophosphotyrosylated peptides as inhibitors. Protein Science 2:977-984). Compounds were tested in a range from 30 to 0.01 μM in a final concentration of 5% DMSO. Enzyme was incubated with substrate, with or without compound, at room temperature for 1.5 h. At the end of the incubation period, BIOMOL “Green Reagent” (BIOMOL, Plymouth Meeting, Pa.) was added to each well, the plates incubated at room temperature for 30 min and absorbance read at 620 nm.

For `O=C1C(=O)c2ncccc2-c2ccccc21` [Example 1, benzo[f]quinoline-5,6-dione], the CC50 (as a rule, the concentration that lowers cell viability or growth by half) in series [1] is 7 µM. In addition, the IC50 (commonly the concentration that inhibits the measured activity by half) in series [2] is 0.4 µM; in series [3], 2.3 µM; in series [4] (pH 7.2, 1.5 h), > 30 µM.

In the case of `O=C1C(=O)c2cccnc2-c2ccccc21` [Example 2, benzo[h]quinoline-5,6-dione], the CC50 in series [1] was 2.4 µM. The IC50 in series [2] is 0.24 µM; in series [3] it was 1 µM; in series [4] (pH 7.2, […]), 3.1 µM.

Turning to `O=C1C(=O)c2ccoc2-c2ccccc21` [Example 3, naphtho[,1,2b]furan-4,5-dione], the CC50 in series [1] is 3.5 µM. Also, the IC50 was 1.1 µM in series [3] and 4.5 µM in series [4] (pH 7.2, […]).

For the compound `O=C1C(=O)c2ccsc2-c2ccccc21` [Example 4, naphtho[1,2-b]thiophene-4,5-dione], the CC50 in series [1] was 3.5 µM. Also, the IC50 in series [3] is 1.5 µM; in series [4] (pH 7.2, 1.5 h) it was > 30 µM.
